Patent US20120178666A1 (SHIRE LLC, priority 2009, published 2012)
Where two headings read alike, the source gives them in different places.

How the values were obtained:
[1] = Comparative bioavailability study in monkeys in the fasted or fed state; format: in vivo, cynomolgus monkey; details: fasted vs fed
Protocol: Five male cynomolgus monkeys were used. Food was withdrawn from animals in fasted groups from the evening of the day prior to dosing until approximately 4 hours after dosing.
The formulations were prepared on the day of dosing and administered orally as soon as practicable up to a maximum of 2 hours after formulation.
Blood samples (0.5 mL) were collected from all animals pre-dose and at 0.5, 1, 2, 3, 4, 6, 8 10, 12, 16 and 24 hours after dosing.
Following processing, the resultant plasma was frozen and analysed by a qualified method. Pharmacokinetic evaluation was performed using a validated pharmacokinetic software package.

[2] = test system: gut motility; assay: Charcoal propulsion test (gut motility); format: in vivo, rat
Protocol: The effect of a drug on gut motility can be studied by means of the charcoal propulsion test.
The method used was based on that described by Takemori et al. (J. Pharmacol. Exp. Ther. 169:39, 1969). Test treatments were administered orally 60 minutes prior to an oral dose of a 10% suspension of charcoal in 2.5% gum Arabic (2 ml/kg). Twenty minutes after dosing with charcoal, the rats were sacrificed and the entire gastrointestinal tract was removed quickly and carefully. The distance that the charcoal meal had travelled toward the caecum was measured and expressed as a percentage of the total gut length.

[3] = immediate release guanfacine (TENEX); cited from earlier work
[4] = Pharmacokinetics in rats in hepatic portal and tail veins following oral administration; format: in vivo; details: rat, equimolar dose
Protocol: Rats were surgically prepared under isofluorane anaesthesia by attaching a silicon catheter to the portal vein then exteriorising it at the nape of the neck with a blood collection port attached.
At each sampling time serial point blood samples (approximately 0.2 mL) were taken simultaneously from the lateral tail vein cannula and the hepatic portal cannula. After collection of the final blood sample each animal was killed by cervical dislocation. Blood samples were collected at 15, 30 minutes and 1, 2, 4, 8 and 24 hours post dose.
Pharmacokinetic parameters in portal and systemic plasma were derived by non-compartmental analysis (linear/logarithmic trapezoidal) using WinNonlin (Version 4.1) software.

[5] = Prodrug stability in simulated gastric fluid (USP); details: 37° C.
Protocol: (§1) The remaining concentrations of the prodrugs were then assayed by HPLC.

[6] = Prodrug stability in simulated intestinal fluid (USP); details: 37° C.
Protocol: as §1

[7] = Comparative pharmacokinetic screening study of guanfacine prodrugs in the monkey; details: oral gavage
Protocol: Blood samples were taken on 4 sampling occasions at various times up to 6 hours after administration and submitted to analysis for the parent drug and prodrug using a qualified LC-MS-MS assay.

[8] = Rattus norvegicus, po, read-out: % inhibition of GIT transit compard to vehicle

food effect (in words) [1] | Compound | inhibition at 0.1 mg/kg ([2]; Rattus norvegicus, po, Study 1, oral dose 0.1 mg/kg guanfacine free base equivalents, read-out: % inhibition of GIT transit compard to vehicle) | inhibition at 0.3 mg/kg ([2]; Rattus norvegicus, po, Study 1, oral dose 0.3 mg/kg guanfacine free base equivalents, read-out: % inhibition of GIT transit compard to vehicle) | inhibition at 1 mg/kg ([2]; Rattus norvegicus, po, Study 1, oral dose 1 mg/kg guanfacine free base equivalents, read-out: % inhibition of GIT transit compard to vehicle) | inhibition at 0.03 mg/kg ([2]; Rattus norvegicus, po, Study 2, oral dose 0.03 mg/kg guanfacine free base equivalents, read-out: % inhibition of GIT transit compard to vehicle) | inhibition at 0.1 mg/kg ([2]; Rattus norvegicus, po, Study 2, oral dose 0.1 mg/kg guanfacine free base equivalents, read-out: % inhibition of GIT transit compard to vehicle) | inhibition at 0.3 mg/kg ([2]; Rattus norvegicus, po, Study 2, oral dose 0.3 mg/kg guanfacine free base equivalents, read-out: % inhibition of GIT transit compard to vehicle) | reduction in the distance travelled by the charcoal plug within 20 minutes compared to control group ([2]; oral, 0.1 mg base/kg) | time at which peak plasma drug levels are reached after dosing [3] | comparative systemic exposure to guanfacine (in words) [4] | inhibition at 0.1 mg/kg [2, 8] | inhibition at 0.3 mg/kg [2, 8] | inhibition at 1 mg/kg [2, 8] | % prodrug remaining following incubation for: 1 h in simulated gastric fluid pH 1.1 [5] | % prodrug remaining following incubation for: 2 h in simulated intestinal fluid pH 6.8 [6] | prodrug levels in plasma (in words) [7]
apparent absence of a food effect | N=C(N)NC(=O)Cc1c(Cl)cccc1Cl [Guanfacine, guanfacine, reference compound] | 52% | 55% | 47% | 13% | 41% | 56% | 41-52% | ≥ 1 h | – | – | – | – | – | – | –
– | CNCC(=O)N[C@H](C(=O)O)[C@@H](C)OC(=O)NC(=N)NC(=O)Cc1c(Cl)cccc1Cl [Compound 63, sarcosine-(2S,3R)-threonine(guanfacine) carbamate di-trifluoroacetate] | – | – | – | – | – | – | – | – | similar | 0% | 13% | 49% | 86% | 99% | detectable prodrug levels in plasma
– | CNCC(=O)N[C@@H](COC(=O)NC(=N)NC(=O)Cc1c(Cl)cccc1Cl)C(=O)O [Compound 61, (S)-serine(guanfacine)-sarcosine carbamate di-trifluoroacetate] | – | – | – | – | – | – | – | – | similar | 8% | 25% | 31% | 92% | 96% | detectable prodrug levels in plasma
